Reference: ChEMBL document CHEMBL5370660, “Design of a Supersoft Topical JAK Inhibitor, Which Is Effective in Human Skin but Rapidly Deactivated in Blood” (J Med Chem, 2023)
In brackets after ≈: the same amount, converted by molar mass. Activity calls are given as the source filed them. The calls are words filed in the database; no cut-off is given here.

Tests used:
[1] = biological target: Tyrosine-protein kinase JAK1 (Homo sapiens, UniProt P23458); experiment: Inhibition of GST-fused JAK1 (866 to 1154 residues)(unknown origin) using FITC-Ahr-KKSRGDYMTMQIG-NH2 peptide as substrate incubated for 30 mins in presence of ATP by caliper microfluidic mobility shift assay
Tyrosine-protein kinase JAK1, sequence (P23458 whole entry, the tested form may be a part): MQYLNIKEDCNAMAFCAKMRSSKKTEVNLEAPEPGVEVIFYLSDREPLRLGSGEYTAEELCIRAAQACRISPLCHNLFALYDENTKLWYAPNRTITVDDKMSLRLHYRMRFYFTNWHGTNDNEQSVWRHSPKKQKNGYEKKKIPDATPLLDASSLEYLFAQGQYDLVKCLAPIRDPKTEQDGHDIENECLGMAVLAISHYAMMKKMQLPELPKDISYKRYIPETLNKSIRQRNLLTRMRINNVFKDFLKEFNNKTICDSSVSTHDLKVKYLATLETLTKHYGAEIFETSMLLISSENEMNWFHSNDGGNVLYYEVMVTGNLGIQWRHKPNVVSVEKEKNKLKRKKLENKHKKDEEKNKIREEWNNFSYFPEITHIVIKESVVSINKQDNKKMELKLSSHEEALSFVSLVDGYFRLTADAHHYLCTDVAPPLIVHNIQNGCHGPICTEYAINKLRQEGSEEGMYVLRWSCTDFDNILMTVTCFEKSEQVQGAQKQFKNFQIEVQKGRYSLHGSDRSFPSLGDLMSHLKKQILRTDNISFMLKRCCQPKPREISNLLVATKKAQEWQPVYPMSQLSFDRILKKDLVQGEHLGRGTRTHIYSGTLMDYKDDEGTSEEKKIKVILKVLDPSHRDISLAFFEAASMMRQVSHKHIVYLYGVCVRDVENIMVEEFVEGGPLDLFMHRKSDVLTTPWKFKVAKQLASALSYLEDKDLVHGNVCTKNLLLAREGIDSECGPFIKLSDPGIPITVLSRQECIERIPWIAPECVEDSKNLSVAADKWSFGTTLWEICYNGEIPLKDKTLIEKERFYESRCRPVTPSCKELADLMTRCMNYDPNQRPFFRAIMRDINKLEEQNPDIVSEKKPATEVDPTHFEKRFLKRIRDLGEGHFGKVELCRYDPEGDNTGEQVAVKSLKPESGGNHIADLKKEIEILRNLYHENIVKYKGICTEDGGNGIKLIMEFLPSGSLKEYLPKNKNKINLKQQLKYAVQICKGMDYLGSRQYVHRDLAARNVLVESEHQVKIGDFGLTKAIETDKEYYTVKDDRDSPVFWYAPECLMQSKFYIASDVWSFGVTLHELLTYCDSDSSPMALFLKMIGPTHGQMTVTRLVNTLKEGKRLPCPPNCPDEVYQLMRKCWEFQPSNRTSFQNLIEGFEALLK

[2] = biological target: Tyrosine-protein kinase JAK2 (Homo sapiens, UniProt O60674); experiment: Inhibition of GST-fused JAK2 (808 to 1132 residues)(unknown origin) using Carboxyfluorescein-Ahx-GGEEEEYFELVKKKK peptide as substrate incubated for 30 mins in presence of ATP by caliper microfluidic mobility shift assay
Tyrosine-protein kinase JAK2, sequence (O60674 whole entry, the tested form may be a part): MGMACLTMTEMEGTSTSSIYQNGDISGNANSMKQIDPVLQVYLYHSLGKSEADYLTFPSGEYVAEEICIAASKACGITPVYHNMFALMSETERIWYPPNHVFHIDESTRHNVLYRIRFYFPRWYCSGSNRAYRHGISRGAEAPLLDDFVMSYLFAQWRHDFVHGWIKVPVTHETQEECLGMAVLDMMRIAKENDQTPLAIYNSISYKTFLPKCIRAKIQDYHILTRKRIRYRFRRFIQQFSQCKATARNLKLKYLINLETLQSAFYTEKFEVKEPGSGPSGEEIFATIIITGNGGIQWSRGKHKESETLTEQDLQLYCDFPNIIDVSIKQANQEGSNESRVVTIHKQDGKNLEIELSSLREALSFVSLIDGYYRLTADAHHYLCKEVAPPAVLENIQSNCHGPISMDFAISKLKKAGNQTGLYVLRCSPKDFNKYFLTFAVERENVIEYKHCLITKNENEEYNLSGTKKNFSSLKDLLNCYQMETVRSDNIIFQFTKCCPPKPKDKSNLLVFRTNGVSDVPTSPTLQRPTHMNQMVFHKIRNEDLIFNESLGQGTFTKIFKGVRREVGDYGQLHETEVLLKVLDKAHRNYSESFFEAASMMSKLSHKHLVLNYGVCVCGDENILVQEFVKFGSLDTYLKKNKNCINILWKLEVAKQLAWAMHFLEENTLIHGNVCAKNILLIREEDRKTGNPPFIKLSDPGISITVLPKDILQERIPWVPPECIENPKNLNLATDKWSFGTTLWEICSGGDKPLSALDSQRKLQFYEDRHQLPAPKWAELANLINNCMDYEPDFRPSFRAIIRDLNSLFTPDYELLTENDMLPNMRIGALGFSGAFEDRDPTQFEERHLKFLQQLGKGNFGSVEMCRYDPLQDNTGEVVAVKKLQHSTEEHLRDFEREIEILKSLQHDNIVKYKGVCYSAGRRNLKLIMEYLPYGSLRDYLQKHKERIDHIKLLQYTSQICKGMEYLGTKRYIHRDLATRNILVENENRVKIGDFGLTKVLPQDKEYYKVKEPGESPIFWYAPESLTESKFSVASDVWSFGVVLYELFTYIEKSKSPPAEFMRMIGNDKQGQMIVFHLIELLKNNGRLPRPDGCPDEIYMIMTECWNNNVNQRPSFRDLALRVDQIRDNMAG

[3] = biological target: T1, Tyrosine-protein kinase JAK3 (Homo sapiens, UniProt P52333); experiment: Inhibition of GST-fused JAK3 (811 to 1124 residues)(unknown origin) using Carboxyfluorescein-Ahx-GGEEEEYFELVKKKK peptide as substrate incubated for 30 mins in presence of ATP by caliper microfluidic mobility shift assay
T1 sequence (P52333 whole entry): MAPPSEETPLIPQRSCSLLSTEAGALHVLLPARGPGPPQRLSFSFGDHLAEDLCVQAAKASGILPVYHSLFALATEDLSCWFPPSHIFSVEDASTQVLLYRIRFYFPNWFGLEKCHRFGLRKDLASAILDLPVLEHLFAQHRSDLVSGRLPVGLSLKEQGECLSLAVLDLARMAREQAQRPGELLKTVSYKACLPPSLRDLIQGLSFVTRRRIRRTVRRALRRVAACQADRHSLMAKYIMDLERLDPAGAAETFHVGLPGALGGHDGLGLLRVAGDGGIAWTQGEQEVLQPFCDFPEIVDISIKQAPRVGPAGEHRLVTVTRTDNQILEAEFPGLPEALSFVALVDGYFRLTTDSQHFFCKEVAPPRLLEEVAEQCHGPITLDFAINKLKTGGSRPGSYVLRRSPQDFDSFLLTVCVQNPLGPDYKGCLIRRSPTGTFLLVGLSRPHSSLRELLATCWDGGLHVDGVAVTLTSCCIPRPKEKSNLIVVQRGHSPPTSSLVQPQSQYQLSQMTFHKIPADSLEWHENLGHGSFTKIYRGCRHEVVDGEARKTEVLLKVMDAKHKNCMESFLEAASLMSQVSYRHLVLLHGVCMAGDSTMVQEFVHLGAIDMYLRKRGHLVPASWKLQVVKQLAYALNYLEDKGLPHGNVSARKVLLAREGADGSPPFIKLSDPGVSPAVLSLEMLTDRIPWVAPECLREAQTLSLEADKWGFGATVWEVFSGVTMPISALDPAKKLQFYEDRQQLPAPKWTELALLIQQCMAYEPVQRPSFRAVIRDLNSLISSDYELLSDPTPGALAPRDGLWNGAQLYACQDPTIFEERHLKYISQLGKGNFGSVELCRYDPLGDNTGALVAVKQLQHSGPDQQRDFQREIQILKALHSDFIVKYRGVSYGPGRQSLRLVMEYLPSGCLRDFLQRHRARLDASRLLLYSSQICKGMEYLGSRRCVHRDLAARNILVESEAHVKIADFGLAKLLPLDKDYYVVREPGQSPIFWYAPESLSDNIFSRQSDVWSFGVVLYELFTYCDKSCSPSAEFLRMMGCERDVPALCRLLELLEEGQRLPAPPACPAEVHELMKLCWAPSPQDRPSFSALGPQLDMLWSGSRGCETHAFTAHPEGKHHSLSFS

[4] = biological target: Non-receptor tyrosine-protein kinase TYK2 (Homo sapiens, UniProt P29597); experiment: Inhibition of GST-fused TYK2 (888 to 1187 residues)(unknown origin) using FITC-Ahr-KKSRGDYMTMQIG-NH2 peptide as substrate incubated for 30 mins in presence of ATP by caliper microfluidic mobility shift assay
Non-receptor tyrosine-protein kinase TYK2, sequence (P29597 whole entry, the tested form may be a part): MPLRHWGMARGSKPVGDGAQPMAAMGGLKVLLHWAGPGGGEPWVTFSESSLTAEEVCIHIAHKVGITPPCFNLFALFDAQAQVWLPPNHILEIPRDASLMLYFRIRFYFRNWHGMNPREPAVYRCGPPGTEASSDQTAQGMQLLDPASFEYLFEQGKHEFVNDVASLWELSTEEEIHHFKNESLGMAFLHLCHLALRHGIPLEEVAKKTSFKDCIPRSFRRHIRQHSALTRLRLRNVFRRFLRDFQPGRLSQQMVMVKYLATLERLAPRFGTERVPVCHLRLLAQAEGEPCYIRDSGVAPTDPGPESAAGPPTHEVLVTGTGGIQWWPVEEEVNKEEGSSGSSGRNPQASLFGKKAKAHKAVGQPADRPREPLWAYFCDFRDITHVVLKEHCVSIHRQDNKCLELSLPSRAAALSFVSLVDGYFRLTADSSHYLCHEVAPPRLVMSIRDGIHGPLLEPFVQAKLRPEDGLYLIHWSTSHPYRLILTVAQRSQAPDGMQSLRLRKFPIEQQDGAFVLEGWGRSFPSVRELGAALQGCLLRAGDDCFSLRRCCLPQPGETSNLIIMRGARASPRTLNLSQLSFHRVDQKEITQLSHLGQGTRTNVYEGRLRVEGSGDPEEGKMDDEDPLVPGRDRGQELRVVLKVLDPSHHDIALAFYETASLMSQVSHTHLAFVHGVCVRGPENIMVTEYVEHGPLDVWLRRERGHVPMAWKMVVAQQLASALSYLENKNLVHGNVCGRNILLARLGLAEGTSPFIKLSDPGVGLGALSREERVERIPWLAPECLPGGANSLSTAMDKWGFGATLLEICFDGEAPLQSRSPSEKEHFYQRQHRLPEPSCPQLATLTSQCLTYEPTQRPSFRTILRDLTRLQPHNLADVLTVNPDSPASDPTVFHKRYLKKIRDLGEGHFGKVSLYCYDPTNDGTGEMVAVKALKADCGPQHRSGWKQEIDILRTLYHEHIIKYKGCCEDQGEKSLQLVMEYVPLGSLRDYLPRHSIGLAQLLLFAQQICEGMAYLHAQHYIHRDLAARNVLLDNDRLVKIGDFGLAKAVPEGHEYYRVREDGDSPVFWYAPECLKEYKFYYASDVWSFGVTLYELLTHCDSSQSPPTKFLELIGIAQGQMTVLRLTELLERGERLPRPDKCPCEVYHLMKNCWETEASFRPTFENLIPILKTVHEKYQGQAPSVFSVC

JAK3/JAK1 [5] = biological target: T2, JAK3/JAK1 (Homo sapiens, UniProt P23458+P52333); experiment: Inhibition of JAK1/3-mediated STAT5 phosphorylation in human M07E cells preincubated for 30 mins followed by IL-15 stimulation measured after 15 mins by flow cytometry; type: cell-based
T2 sequence (P23458 whole entry, one chain of several): as the sequence (P23458 whole entry, the tested form may be a part) above

JAK2/JAK1 = JAK2/JAK1 (Homo sapiens, UniProt O60674+P23458); experiment: Inhibition of JAK1/2-mediated STAT1 phosphorylation in human M07E cells preincubated for 30 mins followed by IFN-alpha stimulation measured after 15 mins by flow cytometry; type: cell-based
JAK2/JAK1, sequence (P23458 whole entry): as the sequence (P23458 whole entry, the tested form may be a part) above
JAK2/JAK1, sequence (O60674 whole entry): as the sequence (O60674 whole entry, the tested form may be a part) above

JAK3/JAK1 [6] = biological target: T2, JAK3/JAK1; experiment: Inhibition of JAK1/3-mediated STAT5 phosphorylation in human whole blood incubated for 30 mins followed by IL-2 addition measured after 15 mins by flow cytometry; type: tissue-based
[7] = Stability in human whole blood assessed as half life at 1 uM incubated upto 8 hrs by LC-MS/MS analysis; type: ADME, tissue-based
[8] = Metabolic stability in human skin S9 fraction measured upto 120 mins by LC-MS analysis; type: ADME, subcellular
[9] = Permeability of compound; type: ADME; conditions: not told; read-out: permeability
[10] = Lipophilicity, LogD of compound; type: physicochemical; conditions: octanol/water
[11] = biological target: T3, Eukaryotic translation initiation factor 2-alpha kinase 3 (Homo sapiens, UniProt Q9NZJ5); experiment: Inhibition of EIF2AK3 (unknown origin)
T3 sequence (Q9NZJ5 whole entry): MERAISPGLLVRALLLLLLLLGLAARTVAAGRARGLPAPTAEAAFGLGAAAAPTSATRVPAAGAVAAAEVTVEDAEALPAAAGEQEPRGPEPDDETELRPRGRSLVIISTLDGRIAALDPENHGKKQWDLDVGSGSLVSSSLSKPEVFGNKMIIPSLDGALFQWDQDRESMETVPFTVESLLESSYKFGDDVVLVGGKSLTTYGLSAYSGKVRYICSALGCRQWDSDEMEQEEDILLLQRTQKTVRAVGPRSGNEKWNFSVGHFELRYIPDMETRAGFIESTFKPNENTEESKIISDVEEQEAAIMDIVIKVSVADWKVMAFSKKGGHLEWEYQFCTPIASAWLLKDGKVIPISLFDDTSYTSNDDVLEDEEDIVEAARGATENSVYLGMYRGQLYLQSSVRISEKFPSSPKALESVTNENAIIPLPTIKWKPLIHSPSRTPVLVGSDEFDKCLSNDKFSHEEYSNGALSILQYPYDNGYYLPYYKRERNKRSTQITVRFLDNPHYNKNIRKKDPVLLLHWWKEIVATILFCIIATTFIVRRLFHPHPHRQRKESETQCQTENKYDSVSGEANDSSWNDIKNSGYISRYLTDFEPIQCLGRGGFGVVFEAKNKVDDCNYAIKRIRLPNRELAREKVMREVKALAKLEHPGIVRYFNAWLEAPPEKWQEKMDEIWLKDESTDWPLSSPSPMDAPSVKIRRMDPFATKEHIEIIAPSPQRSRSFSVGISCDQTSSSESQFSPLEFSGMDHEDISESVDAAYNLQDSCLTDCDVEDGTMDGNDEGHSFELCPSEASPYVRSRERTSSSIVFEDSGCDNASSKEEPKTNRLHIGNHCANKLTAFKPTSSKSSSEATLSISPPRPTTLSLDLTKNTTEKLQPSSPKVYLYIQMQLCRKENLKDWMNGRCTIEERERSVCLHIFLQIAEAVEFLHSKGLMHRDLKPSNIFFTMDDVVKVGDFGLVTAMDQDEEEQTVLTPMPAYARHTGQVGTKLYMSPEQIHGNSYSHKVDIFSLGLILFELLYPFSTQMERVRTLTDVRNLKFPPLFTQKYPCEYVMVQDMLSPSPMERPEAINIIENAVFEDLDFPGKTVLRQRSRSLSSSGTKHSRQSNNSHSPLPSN

[12] = biological target: T4, Mitogen-activated protein kinase kinase kinase 2 (Homo sapiens, UniProt Q9Y2U5); experiment: Inhibition of MAP3K2 (unknown origin)
T4 sequence (Q9Y2U5 whole entry): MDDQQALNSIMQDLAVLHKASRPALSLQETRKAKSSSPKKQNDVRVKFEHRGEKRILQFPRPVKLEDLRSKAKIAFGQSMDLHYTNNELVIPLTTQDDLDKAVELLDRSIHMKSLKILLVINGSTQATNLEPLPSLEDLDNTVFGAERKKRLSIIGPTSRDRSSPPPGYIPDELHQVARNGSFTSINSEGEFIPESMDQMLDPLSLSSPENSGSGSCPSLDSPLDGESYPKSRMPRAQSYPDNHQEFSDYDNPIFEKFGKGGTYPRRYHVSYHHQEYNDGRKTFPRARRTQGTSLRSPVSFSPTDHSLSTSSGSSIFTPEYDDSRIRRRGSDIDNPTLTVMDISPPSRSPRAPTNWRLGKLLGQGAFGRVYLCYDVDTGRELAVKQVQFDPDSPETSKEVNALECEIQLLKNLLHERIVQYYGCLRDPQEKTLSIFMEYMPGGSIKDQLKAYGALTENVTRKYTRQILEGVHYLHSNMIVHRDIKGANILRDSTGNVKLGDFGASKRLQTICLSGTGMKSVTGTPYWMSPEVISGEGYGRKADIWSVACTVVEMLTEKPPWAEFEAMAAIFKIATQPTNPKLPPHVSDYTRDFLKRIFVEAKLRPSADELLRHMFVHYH

[13] = Half life in human blood; type: ADME, tissue-based
C-C motif chemokine 17 = biological target: T5, C-C motif chemokine 17 (Homo sapiens, UniProt Q92583); experiment: Inhibition of TARC in human skin immersion culture at 10 uM preincubated for 3 hrs followed by IL-4/IL-13 stimulation measured after 18 hrs by MSD assay relative to control; type: tissue-based, Skin of body; conditions: time 21 hrs
T5 sequence (Q92583 whole entry): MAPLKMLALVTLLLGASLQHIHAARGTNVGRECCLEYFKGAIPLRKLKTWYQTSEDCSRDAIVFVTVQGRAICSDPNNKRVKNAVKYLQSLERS

[14] = Thermodynamic solubility of the compound at pH 6.8 using crystalline form of sample; type: physicochemical; conditions: read-out: Therm_solubility
[15] = Saturation solubility of compound in PEG400/transcutol/benzyl alcohol/water mixture using crystalline form of sample; type: physicochemical
Homo sapiens [16] = experiment: (§1) Inhibition of TARC gene expression in IL-4/IL-13-stimulated fresh human skin explant using Franz diffusion cell model at 0.5 % administered topically preincubated overnight followed by fresh media replacement in receiver fluid without compound and subsequently stimulated with IL-4/IL-13 measured after 24 hrs by RT-qPCR analysis; type: functional, tissue-based; conditions: Skin of body
Homo sapiens [17] = experiment: as §1, with “MMP12” for “TARC”; type: functional, tissue-based; conditions: Skin of body
Homo sapiens [18] = experiment: as §1, with “Eotaxin-3” for “TARC”; type: functional, tissue-based; conditions: Skin of body
[19] = (§2) Stability of compound in fresh human skin explant using Franz diffusion cell model assessed as compound concentration in dermis at 0.5 % administered topically preincubated overnight followed by fresh media replacement in receiver fluid without compound and subsequently stimulated with IL-4/IL-13 measured after 40 hrs by LC-MS/MS analysis; type: ADME, tissue-based, Skin of body; conditions: topical or ocular, read-out: Ct
[20] = as §2, with “Drug penetration” for “Stability of compound”, “receiver fluid” for “dermis”, “24” for “40”; type: ADME, tissue-based, Skin of body; conditions: artificial membrane
Homo sapiens [21] = experiment: Downregulation of GSVA score in human abdominal skin model at 0.2 % administered topically as cream treated for 24 hrs followed by removal of cream and stratum corneum and subsequently stimulated with IL-4/IL-13 measured after 3 hrs; type: functional, tissue-based; conditions: Abdomen skin, route top, time 27.0 hrs
[22] = Solubility of the compound at pH 6.8 using amorphous form of sample; type: physicochemical; conditions: buffer
[23] = Saturation solubility of compound in PEG400/transcutol/benzyl alcohol/water mixture using amorphous form of sample; type: physicochemical
[24] = Stability of compound under light stress assessed as compound decomposition under sunlight with intensity of 4000 KJ/m2, irradiation of 250 W/m2, wavelength of >290 nm, temperature of 37 degreeC for 4 hrs using amorphous form of sample; type: ADME; conditions: read-out: Drug degradation
[25] = Stability of compound under temperature stress assessed as compound degradation at 50 degreeC measured after 7 days using amorphous form of sample; type: physicochemical; conditions: time 7 day; read-out: Drug degradation

IC50 [2] [µM] | IC50 (JAK2/JAK1) [µM] | half-life at 1 µM [7] [min] | half-life [8] [min] | Papp [9] [nm/s] | logD [10] | SMILES | IC50 [1] [µM] | IC50 [3] [µM] | IC50 (JAK3/JAK1 [5]) [µM] | IC50 (JAK3/JAK1 [6]) [µM] | other results
0.011 | > 10 | > 240 | < 240 | 5 | 0.25 | COc1ccccc1Nc1cc(Nc2ccc(CC(=O)O)cn2)ncc1C(N)=O | 0.005 | 0.01 | 7.02 | > 40 | IC50 [4]: 0.007 µM; IC50 [11]: < 0.1 µM; IC50 [12]: < 0.1 µM
5.22 | 0.071 | 4 | 7 |  |  | CCOC(=O)Oc1cccc(Nc2cc(Nc3ccccc3Cl)c(C(N)=O)cn2)n1 |  |  |  |  | half-life [13]: ~4 min
 | 0.085 | > 240 | > 240 | 67 | 4.4 | Cc1cccc(Nc2cc(Nc3ccccc3Cl)c(C(N)=O)cn2)n1 |  |  |  |  | inhibition at 10 µM (C-C motif chemokine 17): 100%; solubility thermodynamic [14]: 0.0001 mg/mL (≈ 0.000283 mM); solubility thermodynamic [15]: 2.8 mg/mL (≈ 7.91 mM); inhibition (Homo sapiens [16]): Active; inhibition (Homo sapiens [17]): Active; inhibition (Homo sapiens [18]): Active; concentration at 40 h, 0.5 % [19]: 33 µM; Drug uptake [20]: 0.004 µM; Activity (Homo sapiens [21]): Active

SMILES | IC50 [2] [µM] | IC50 (JAK2/JAK1) [µM] | half-life at 1 µM [7] [min] | half-life [8] [min] | Papp [9] [nm/s] | logD [10] | IC50 [1] [µM] | IC50 [3] [µM] | IC50 (JAK3/JAK1 [5]) [µM] | IC50 (JAK3/JAK1 [6]) [µM] | other results
COC(=O)Cc1ccc(Nc2cc(Nc3ccccc3Cl)c(C(N)=O)cn2)nc1 | 0.01 | 0.037 | 5 | 12 |  | 3.8 | 0.009 | 0.013 | 0.027 | 7.85 | solubility [22]: 0.003 mg/mL (≈ 0.00728 mM); solubility thermodynamic [23]: 5.4 mg/mL (≈ 13.1 mM); degraded at 4 h [24]: 7%; degraded at 168 h [25]: 11%
